Measurements reported in patent US7446106B2, “Pyridylfurans and pyrroles as Raf kinase inhibitors” (SmithKline Beecham plc, priority 2001, dated 2008).
pIC50: −log10 of the molar value.

Experiments:
[1] = test system: Colo201 (human colon carcinoma); assay: XTT 72 hr growth inhibition (Assay 3), Colo201; assay type: cell-based; conditions: COLO 201, colorectal cancer, B-Raf status ND, Ras ND, read-out: IC50 cell viability, Colo201
Method: XTT 72 Hr Growth Inhibition Protocol for Mammalian Cultured Cells (Assay 3)
Human diploid foreskin fibroblasts (HFF) or human colon carcinoma (Colo 201) cells were grown in Dulbecco's modified Eagle's medium (DMEM) (kvitrogen/Life Technologies) containing 10% fetal bovine serum (FBS) and the antibiotics penicillin (100 Units/ml) and streotomycin (100 microgramnis/ml) (Invitrogen/Life Technologies). Growth was at 37° C. in humidified 5% CO2 incubators in 75 cm^2 plastic flasks. Cells were harvested using 0.25% trypsin/1 mM ethylenediaminetetraacetic acid (EDTA), resuspended in growth medium, and counted using a hemocytometer. Flat-bottomed 96-well plates were seeded with 2×10^3 cells/well in a volume of 200 ul from trypsinized exponentially growing cultures. To “blank” wells, growth medium was added with no additions. Cells were incubated overnight to permit attachment.
Next day, medium from wells that contained cells was replaced with 180 microliters of fresh medium. Appropriate dilutions of test compounds were added to the wells from stock soloutions of compound dissolved in dimethyl sulfoxide (DMSO); final DMSO concentration in all wells was 0.2%. […] Absorbance at 450 nm was then determined using a 96-well UV plate reader (Molecular Devices). Under these conditions, absorbance of untreated control cells at […] was at least 1.0 optical density unit/ml. […]

[2] = test system: A375P (human melanoma); assay: Methylene blue growth inhibition assay (Assay 2), A375P; assay type: cell-based; conditions: 72 h, B-Raf V599E, Ras wt, 3 days, read-out: IC50 cell growth, A375P
[3] = test system: SKMEL3 (human melanoma); assay: Methylene blue growth inhibition assay (Assay 2), SKMEL3; assay type: cell-based; conditions: SK-MEL3, 72 h, B-Raf V599E, Ras wt, 3 days, read-out: IC50 cell growth, SKMEL3
[4] = test system: Colo205 (colon carcinoma); assay: Methylene blue growth inhibition assay (Assay 2), Colo205; assay type: cell-based; conditions: Homo sapiens, COLO 205, 72 h, colorectal cancer, B-Raf V599E, Ras wt, 3 days, read-out: IC50 cell growth, Colo205
[5] = test system: SKMEL2 (human melanoma); assay: Methylene blue growth inhibition assay (Assay 2), SKMEL2; assay type: cell-based; conditions: SK-MEL-2, 72 h, B-Raf wt, [Q61R]N-Ras, 3 days, read-out: IC50 cell growth, SKMEL2
[6] = test system: HFF (normal human foreskin fibroblasts); assay: Methylene blue growth inhibition assay (Assay 2), HFF; assay type: cell-based; conditions: Fibroblast, 72 h, B-Raf wt, Ras wt, 3 days, read-out: IC50 cell growth, HFF
[7] = biological target: B-Raf (Homo sapiens, UniProt P15056); assay: Fluorescence anisotropy kinase binding assay (Assay 1)
Sequence of B-Raf (P15056 whole entry): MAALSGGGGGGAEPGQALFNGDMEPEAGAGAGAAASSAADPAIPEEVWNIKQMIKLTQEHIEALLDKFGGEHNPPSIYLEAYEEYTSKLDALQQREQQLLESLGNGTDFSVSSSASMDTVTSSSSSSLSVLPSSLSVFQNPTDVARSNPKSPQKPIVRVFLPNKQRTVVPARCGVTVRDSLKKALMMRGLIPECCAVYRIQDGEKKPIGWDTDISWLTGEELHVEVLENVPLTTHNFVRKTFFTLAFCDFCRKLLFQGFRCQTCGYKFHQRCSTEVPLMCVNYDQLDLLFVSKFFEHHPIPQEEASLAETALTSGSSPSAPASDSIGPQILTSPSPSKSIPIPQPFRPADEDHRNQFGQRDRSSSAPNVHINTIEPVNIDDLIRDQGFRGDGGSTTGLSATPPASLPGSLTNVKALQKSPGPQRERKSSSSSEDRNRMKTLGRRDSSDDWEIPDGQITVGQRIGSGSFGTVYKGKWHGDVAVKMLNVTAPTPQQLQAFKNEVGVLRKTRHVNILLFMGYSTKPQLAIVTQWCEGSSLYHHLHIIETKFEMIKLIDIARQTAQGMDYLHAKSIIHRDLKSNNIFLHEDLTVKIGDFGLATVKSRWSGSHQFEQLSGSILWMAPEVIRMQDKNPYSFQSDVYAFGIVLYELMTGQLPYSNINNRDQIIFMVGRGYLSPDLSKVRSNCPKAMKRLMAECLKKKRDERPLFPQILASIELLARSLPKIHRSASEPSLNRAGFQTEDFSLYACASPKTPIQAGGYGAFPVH
Description: The activity of compounds of formula (I) as B-Raf inhibitors may be determined by the following in vitro assay:
Fluorescence Anisoptrophy Kinase Binding Assay
The concentration of kinase enzyme should preferably be >1×Kf. The concentration of fluorescent ligand required will depend on the instrumentation used, and the fluorescent and physicochemical properties. The concentration used must be lower than the concentration of kinase enzyme, and preferably less than half the kinase enzyme concentration. A typical protocol is:
All compounds are serially diluted in DMSO, then by a one step dilution into buffer of comparison, 50 mM HEPES, […] pH7.5, 1 mM CHAPS, 10 mM MgCL2, for the assay.
B-Raf Enzyme concentration: 1 nM
Fluorescent ligand concentration: 0.5 nM
Test compound concentration: 0.5 nM-100 uM
Components incubated in 10 ul final volume in LJL HE 384 type B black microtitre plate until equilibrium reached (Over 3 h, up to 30 h)
Fluorescence anisotropy read in an LJL Acquest fluorescence reader.
Definitions: Ki=dissociation constant for inhibitor binding
• Kf=dissociation constant for fluorescent ligand binding
The fluorescent ligand is the following compound:
which is derived from 5-[2(4aminomethylphenyl)-5-pyridin-4-yl-1H-imidazolyl-4-yl]-2-chlorophenol and rhodamine green.

Question: How did the pIC50 [1] turn out when `CN(C)CCOc1ccc(-c2cc(-c3ccc(Cl)c(O)c3)c(-c3ccncc3)o2)cc1` [Example 3, 2-Chloro-5-{5-[4-(2-dimethylamino-ethoxy)-phenyl]-2-pyridin-4-yl-furan-3-yl}-phenol] was run?
Answer: The pIC50 was 5.35.

Question: And the pIC50 [2]?
Answer: The pIC50 was 5.64.

Question: And the pIC50 [3]?
Answer: The pIC50 was 6.05.

Question: What about the pIC50 [4] of the same compound?
Answer: The pIC50 was 5.03.

Question: What about the pIC50 [5] of the same compound?
Answer: The pIC50 was less than 5.85.

Question: What about the pIC50 [6] of the same compound?
Answer: The pIC50 was less than 4.52.

Question: What about the Kd [7] of the same compound?
Answer: The Kd was 3 nM.
